# Legend:
# KB [1] = assay: Cytotoxicity (extracted with dichloromethane-methanol) was evaluated against KB tumor cell line; type: functional; conditions: Homo sapiens, read-out: ID50 (the source's name)
# KB [2] = assay: Cytotoxicity (dichloromethane extract) was evaluated against KB tumor cell line; type: functional; conditions: Homo sapiens, read-out: ID50 (the source's name)
smiles,measurement,setting,value
CC(C)CCC[C@@H](C)[C@H]1[C@@H](O)C[C@H]2[C@@H]3CC(=O)[C@H]4CC(=O)CC[C@]4(C)[C@H]3CC[C@]12C,IC50,KB [1],0.5 µg/mL
same,IC50,KB [2],5 µg/mL

# — ChEMBL document CHEMBL1132815, “16Beta-hydroxy-5alpha-cholestane-3,6-dione, a novel cytotoxic oxysterol from the red alga Jania rubens” (2000)
